Holding throughout (assay type): nucleic-acid assay
Experiment [1] relates to Nucleic Acid. Kind of experiment: Binding affinity to Poly(dA.dT)2 DNA in phosphate buffer assessed as change in melting temperature.
Experiment [2] deals with Nucleic Acid. The experiment in a line: Binding affinity to Poly(dA).Poly(dT) DNA in MES buffer assessed as change in melting temperature.
In experiment [3] the test system is Nucleic Acid. Kind of experiment: Binding affinity to Salmon sperm DNA in phosphate buffer assessed as change in melting temperature. The settings on record: Oncorhynchus.

Drawing on ChEMBL document CHEMBL1153695, “Asymmetrical diaromatic guanidinium/2-aminoimidazolinium derivatives: synthesis and DNA affinity” (J Med Chem, 2009), this text covers ΔTm for 30 compounds.

`Cn1cc(NC(=O)c2cc(NC(=O)CNC(=N)N)cn2C)cc1C(=O)NCCC(=N)N`: the ΔTm with Nucleic Acid [1] turned out to be 39 °C. For the compound `N=C(N)Nc1ccc(Nc2ccc(N=C3NCCN3)cc2)cc1`, the ΔTm in the experiment with Nucleic Acid [2] stood at 35.1 °C; in the experiment with Nucleic Acid [1], 17.5 °C; in the experiment with Nucleic Acid [3], 12 °C.

With `N=C(N)Nc1ccc(Cc2ccc(N=C3NCCN3)cc2)cc1`, the ΔTm with Nucleic Acid [2] stood at 17.2 °C; with Nucleic Acid [1] it was 6 °C; in the experiment on Nucleic Acid [3], 6 °C.

On to `N=C(N)Oc1ccc(Oc2ccc(O)cc2)cc1`, for which the ΔTm with Nucleic Acid [3] came out at 4 °C. Same read-out and setting: in the case of `N=C(N)Nc1ccc(CCc2ccc(N)cc2)cc1` it was 0 °C. For the compound `N=C(N)Nc1ccc(CCc2ccc(N=C3NCCN3)cc2)cc1`, the ΔTm in the experiment with Nucleic Acid [2] was 29 °C; in the experiment with Nucleic Acid [1] it was 16 °C; in the experiment on Nucleic Acid [3], 8 °C. Turning to `N=C(N)Nc1ccc(N2CCN(c3ccc(N)cc3)CC2)cc1`, the ΔTm with Nucleic Acid [3] was determined as 2 °C. Turning to `N=C(N)Nc1ccc(Oc2ccc(N)cc2)cc1`, in the experiment with Nucleic Acid [3], the ΔTm amounted to 2 °C. With `N=C(N)Oc1ccc(Sc2ccc(O)cc2)cc1`, the ΔTm in the experiment on Nucleic Acid [3] is 2 °C. For `N=C(N)Nc1ccc(NC(=O)Nc2ccc(N)cc2)cc1`, in the experiment with Nucleic Acid [3], the ΔTm turned out to be 2 °C.

`N=C(N)Nc1ccc(C(=O)c2ccc(N)cc2)cc1`: the ΔTm with Nucleic Acid [3] is 0 °C. Still for that read-out and setting: the figure for `Nc1ccc(CCc2ccc(N=C3NCCN3)cc2)cc1` is 0 °C; for `Nc1ccc(Nc2ccc(N=C3NCCN3)cc2)cc1` it is 2 °C. For `Nc1ccc(Oc2ccc(N=C3NCCN3)cc2)cc1`, the ΔTm with Nucleic Acid [3] stood at 0 °C. With `N=C(N)Oc1ccc(Cc2ccc(O)cc2)cc1`, the ΔTm in the experiment with Nucleic Acid [3] turned out to be 2 °C. Regarding `N=C(N)Nc1ccc(N2CCN(c3ccc(N=C4NCCN4)cc3)CC2)cc1`, the ΔTm was determined as 31.1 °C with Nucleic Acid [2], 15 °C with Nucleic Acid [1] and 9 °C with Nucleic Acid [3]. On to `N=C(N)Nc1ccc(C(=O)c2ccc(N=C3NCCN3)cc2)cc1`, for which the ΔTm was 32 °C in the experiment with Nucleic Acid [2], 15 °C with Nucleic Acid [1] and 8 °C with Nucleic Acid [3]. Turning to `N=C(N)Nc1ccc(Nc2ccc(N)cc2)cc1`, the ΔTm in the experiment with Nucleic Acid [3] was 2 °C. Regarding `N=C(N)Oc1ccc(Cc2ccc(OC(=N)N)cc2)cc1`, the ΔTm in the experiment with Nucleic Acid [3] turned out to be 4 °C. Same read-out and setting: the figure for `N=C(N)Oc1ccc(Oc2ccc(OC(=N)N)cc2)cc1` is 6 °C. With `N=C(N)Nc1ccc(NC(=O)Nc2ccc(N=C3NCCN3)cc2)cc1`, the ΔTm in the experiment with Nucleic Acid [2] was 30 °C; in the experiment with Nucleic Acid [1], 14 °C; in the experiment on Nucleic Acid [3], 11.5 °C. As for `N=C(N)Oc1ccc(Sc2ccc(OC(=N)N)cc2)cc1`, in the experiment on Nucleic Acid [3], the ΔTm was determined as 5 °C. With `N=C(N)Nc1ccc(Oc2ccc(N=C3NCCN3)cc2)cc1`, the figures for the shift in melting temperature (ΔTm) in the experiment with Nucleic Acid [2], in the experiment with Nucleic Acid [1] and in the experiment on Nucleic Acid [3] were 25.3 °C, 10 °C and 7 °C, respectively. As for `N=C(N)Nc1ccc(Sc2ccc(N)cc2)cc1`, in the experiment with Nucleic Acid [3], the ΔTm turned out to be 2 °C. Still for that read-out and setting: in the case of `Nc1ccc(N2CCN(c3ccc(N=C4NCCN4)cc3)CC2)cc1` it was 1 °C. Turning to `N=C(N)Nc1ccc(Sc2ccc(N=C3NCCN3)cc2)cc1`, the ΔTm with Nucleic Acid [2] worked out at 23 °C; in the experiment on Nucleic Acid [1] it was 9 °C; with Nucleic Acid [3] it was 7 °C. `Nc1ccc(Cc2ccc(N=C3NCCN3)cc2)cc1`: the ΔTm with Nucleic Acid [3] was 3 °C. Turning to `Nc1ccc(NC(=O)Nc2ccc(N=C3NCCN3)cc2)cc1`, the ΔTm in the experiment with Nucleic Acid [3] is 4 °C. On the same count and under the same terms, the figure for `Nc1ccc(Sc2ccc(N=C3NCCN3)cc2)cc1` is 0 °C; for `N=C(N)Nc1ccc(Cc2ccc(N)cc2)cc1` it is 3 °C.

As usually defined, the ΔTm is the shift of the melting midpoint relative to a reference.
